Laboratory results taken from patent US5595760A, “Sustained release of peptides from pharmaceutical compositions” (Delab, priority 1995, dated 1997).

Legend:
[1] = In vivo blood level release profile in dogs (plasma RIA); design: species or system dog; conditions: gels at sufficient dosages
Description: Once a particular peptide salt is found to gel in any of the in vitro assays described above, an in vivo assay can be used to determine the suitability of that peptide salt for therapeutic use in animals or humans. A blood level release profile for a particular peptide salt can be determined by injecting the peptide salt into an animal, e.g., a Sprague Dawley rat or dog, and testing blood samples taken at specific time intervals, e.g., hourly intervals over 1 to 5 days, or 12 or 24 hour intervals over 5 to 45 days, for the concentration of the peptide. The suitability of a particular peptide gel, or a peptide/carrier gel, for therapeutic delivery of the peptide can thus be determined.
Specifically, animals are anaesthetized with pentobarbital (60 mg/kg i.p. for rats), and a jugular vein is cannulated for blood sampling. A test peptide semisolid suspension or solid composition (or standard solution for comparison purposes), e.g., of SOMATULINE™, is injected subcutaneously at a specific dosage, e.g., 1.0, 3.0, or 6.0 mg/kg of SOMATULINE™. […] The amount of peptide in the plasma samples is determined by a standard radioimmunoassay (RIA) technique that allows a direct measurement without extraction of the peptide from the rat plasma. […]

[2] = Solubility of the peptide salt in water; type: physicochemical; conditions: pH 7.0, 25° C.
Source text: As used herein, a "gelable peptide salt" is a peptide salt which will form a gel upon contact with bodily fluids. Whether a peptide salt is "gelable," and will have the desired biological properties, can be determined by testing the peptide salt in the in vitro and in vivo assays described below. The term "peptide" means a natural or synthetic molecule comprising two or more amino acids linked by the carboxyl group of one amino acid and the amino group of another. Thus, the term includes both polypeptides and proteins. A "soluble" peptide salt is one having a solubility of 0.1 mg/ml, and preferably 1.0 mg/ml, in water at a pH of 7.0 and a temperature of 25° C.
A solution of the peptide composition is undesirable, because such a solution, once injected, will disperse and not form the sustained-release gel of the invention. Thus, the amount of water is carefully selected to be less than that required to dissolve a specific amount of the peptide composition For example, at 25° C., pH 7.0, 1.0 ml or less of water is required when mixed with 26 mg of the acetate salt of SOMATULINE™ to avoid the formation of a solution. By using an amount of water that is less than 50 percent, and preferably less than 20 or 10 percent, of the amount of water required to dissolve a peptide salt, a semisolid or paste-like suspension, rather than a solution, is ensured.

CC(C)[C@@H]1NC(=O)[C@H](CCCCN)NC(=O)[C@@H](Cc2c[nH]c3ccccc23)NC(=O)[C@H](Cc2ccc(O)cc2)NC(=O)[C@@H](NC(=O)[C@H](N)Cc2ccc3ccccc3c2)CSSC[C@@H](C(=O)N[C@H](C(N)=O)[C@@H](C)O)NC1=O [SOMATULINE™]
duration of sustained release of at least 1.0 ng/ml of the peptide in the blood [1]: over one month | solubility [2]: 26.0 mg/mL
